*1 amine or outer side, *2 acyl side, *3 side chain or, on linkers, in order; H or OH if unused. Where a SMILES comes first, the peptide text is derived from it. Side-chain parts run from the residue outwards. [ ]: non-standard residue; d: D form. The star is where a group is joined. C20 diacid = O=C(O)CCCCCCCCCCCCCCCCCCC(=O)*; γGlu = O=C(O)[C@H](CCC(=O)[*:2])N[*:1]; αMeF = C[C@](N)(Cc1ccccc1)C(=O)O; 4Pal = N[C@@H](Cc1ccncc1)C(=O)O; αMeL = CC(C)C[C@](C)(N)C(=O)O; AEEA = NCCOCCOCC(=O)O; Aib = CC(C)(N)C(=O)O
Experiments:
[1] = molecular target: T1, human glucose-dependent insulinotropic peptide receptor (GIPR) (Homo sapiens, UniProt P48546); assay: cAMP functional assay (HTRF) in HEK293 cells in presence of 0.1% casein; format: cell-based; details: HEK293 cells expressing human GIPR, geometric mean, read-out: hGIPR cAMP Rel EC50 nM (SEM, n)
T1 construct: expressed in transfected cells; host or cells: HEK293
T1 sequence (P48546 22-466): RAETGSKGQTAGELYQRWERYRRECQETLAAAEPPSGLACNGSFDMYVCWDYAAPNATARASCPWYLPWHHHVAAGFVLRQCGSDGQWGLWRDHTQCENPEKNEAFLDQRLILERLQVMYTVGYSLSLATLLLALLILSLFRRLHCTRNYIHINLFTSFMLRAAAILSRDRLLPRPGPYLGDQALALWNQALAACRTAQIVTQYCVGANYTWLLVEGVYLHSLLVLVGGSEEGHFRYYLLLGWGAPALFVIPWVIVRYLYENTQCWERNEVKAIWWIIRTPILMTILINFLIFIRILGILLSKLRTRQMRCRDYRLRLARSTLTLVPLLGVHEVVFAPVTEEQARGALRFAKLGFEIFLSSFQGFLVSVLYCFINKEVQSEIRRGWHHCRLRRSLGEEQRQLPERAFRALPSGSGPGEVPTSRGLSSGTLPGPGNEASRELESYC

[2] = molecular target: T2, human glucagon receptor (GcgR) (Homo sapiens, UniProt P47871); assay: as above; format: cell-based; details: HEK293 cells expressing human GcgR, geometric mean, read-out: hGcgR cAMP Rel EC50 nM (SEM, n)
T2 construct: expressed in transfected cells; host or cells: HEK293
T2 sequence (P47871 26-477): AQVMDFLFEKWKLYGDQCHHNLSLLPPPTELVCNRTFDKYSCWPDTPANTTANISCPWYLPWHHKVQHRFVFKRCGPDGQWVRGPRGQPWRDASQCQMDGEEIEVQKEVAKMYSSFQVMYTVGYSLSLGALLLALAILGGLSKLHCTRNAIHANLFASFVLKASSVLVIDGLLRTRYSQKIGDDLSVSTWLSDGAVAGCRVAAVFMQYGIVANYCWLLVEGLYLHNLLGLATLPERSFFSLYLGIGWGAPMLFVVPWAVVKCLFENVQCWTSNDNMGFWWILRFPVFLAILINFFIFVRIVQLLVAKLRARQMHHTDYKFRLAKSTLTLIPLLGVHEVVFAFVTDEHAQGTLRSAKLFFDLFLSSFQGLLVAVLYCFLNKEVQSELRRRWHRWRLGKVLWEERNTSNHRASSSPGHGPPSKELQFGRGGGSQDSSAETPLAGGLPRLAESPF

CC[C@H](C)[C@H](NC(=O)[C@H](Cc1ccccc1)NC(=O)[C@@H](NC(=O)CNC(=O)[C@H](CCC(=O)O)NC(=O)C(C)(C)NC(=O)[C@@H](N)Cc1ccc(O)cc1)[C@@H](C)O)C(=O)N[C@@H](CO)C(=O)N[C@@H](CC(=O)O)C(=O)N[C@@H](Cc1ccc(O)cc1)C(=O)N[C@@H](CO)C(=O)N[C@H](C(=O)N[C@@](C)(CC(C)C)C(=O)N[C@@H](CC(C)C)C(=O)N[C@@H](CC(=O)O)C(=O)N[C@@H](CCCCN)C(=O)N[C@@H](CCCCNC(=O)COCCOCCNC(=O)COCCOCCNC(=O)CC[C@H](NC(=O)CCCCCCCCCCCCCCCCCCC(=O)O)C(=O)O)C(=O)N[C@@H](Cc1c[nH]cn1)C(=O)N[C@@H](CCC(N)=O)C(=O)NC(C)(C)C(=O)N[C@@H](CCC(=O)O)C(=O)N[C@@H](Cc1ccccc1)C(=O)N[C@H](C(=O)N[C@@H](CCC(=O)O)C(=O)N[C@@H](Cc1ccncc1)C(=O)N[C@@H](CC(C)C)C(=O)N[C@@H](CC(C)C)C(=O)N[C@@H](C)C(=O)N[C@H](C(=O)NCC(=O)N1CCC[C@H]1C(=O)N[C@@H](CO)C(=O)N[C@@H](CO)C(=O)NCC(=O)N[C@@H](C)C(=O)N1CCC[C@H]1C(=O)N1CCC[C@H]1C(=O)N1CCC[C@H]1C(=O)N[C@@H](CO)C(N)=O)[C@@H](C)O)C(C)C)[C@@H](C)CC [Example 58] (H-Y[Aib]EGTFISDYSI[αMeL]LDKK([AEEA-AEEA-γGlu-C20 diacid])HQ[Aib]EFVE[4Pal]LLATGPSSGAPPPS-NH2)
EC50 [1]: 0.0183 nM
EC50 [2]: > 5000 nM

CC[C@H](C)[C@H](NC(=O)[C@H](Cc1ccccc1)NC(=O)[C@@H](NC(=O)CNC(=O)[C@H](CCC(=O)O)NC(=O)C(C)(C)NC(=O)[C@@H](N)Cc1ccc(O)cc1)[C@@H](C)O)C(=O)N[C@@H](CO)C(=O)N[C@@H](CC(=O)O)C(=O)N[C@@H](Cc1ccc(O)cc1)C(=O)N[C@@H](CO)C(=O)N[C@H](C(=O)N[C@@](C)(CC(C)C)C(=O)N[C@@H](CC(C)C)C(=O)N[C@@H](CC(=O)O)C(=O)N[C@@H](CCCCN)C(=O)N[C@@H](CCCCNC(=O)COCCOCCNC(=O)COCCOCCNC(=O)CC[C@H](NC(=O)CCCCCCCCCCCCCCCCCCC(=O)O)C(=O)O)C(=O)N[C@@H](Cc1c[nH]cn1)C(=O)N[C@@H](CCC(N)=O)C(=O)NC(C)(C)C(=O)N[C@@H](CCC(=O)O)C(=O)N[C@@H](Cc1ccccc1)C(=O)N[C@H](C(=O)N[C@@H](CCC(=O)O)C(=O)N[C@@H](Cc1ccncc1)C(=O)N[C@@H](CC(C)C)C(=O)N[C@@H](CC(C)C)C(=O)N[C@@H](C)C(=O)N[C@@H](C)C(=O)NCC(=O)N1CCC[C@H]1C(=O)N[C@@H](CO)C(=O)N[C@@H](CO)C(=O)NCC(=O)N[C@@H](C)C(=O)N1CCC[C@H]1C(=O)N1CCC[C@H]1C(=O)N1CCC[C@H]1C(=O)N[C@@H](CO)C(N)=O)C(C)C)[C@@H](C)CC [Example 59]
EC50 [1]: 0.0202 nM
EC50 [2]: > 5000 nM

CC[C@H](C)[C@H](NC(=O)[C@H](CO)NC(=O)[C@H](Cc1ccc(O)cc1)NC(=O)[C@H](CC(=O)O)NC(=O)[C@H](CO)NC(=O)[C@@H](NC(=O)[C@](C)(Cc1ccccc1)NC(=O)[C@@H](NC(=O)CNC(=O)[C@H](CCC(=O)O)NC(=O)C(C)(C)NC(=O)[C@@H](N)Cc1ccc(O)cc1)[C@@H](C)O)[C@@H](C)CC)C(=O)N[C@@](C)(CC(C)C)C(=O)N[C@@H](CC(C)C)C(=O)N[C@@H](CC(=O)O)C(=O)N[C@@H](CCCCN)C(=O)N[C@@H](CCCCNC(=O)COCCOCCNC(=O)COCCOCCNC(=O)CC[C@H](NC(=O)CCCCCCCCCCCCCCCCCCC(=O)O)C(=O)O)C(=O)N[C@@H](Cc1c[nH]cn1)C(=O)N[C@@H](CCC(N)=O)C(=O)NC(C)(C)C(=O)N[C@@H](CCC(=O)O)C(=O)N[C@@H](Cc1ccccc1)C(=O)N[C@H](C(=O)N[C@@H](CCC(=O)O)C(=O)N[C@@H](Cc1ccncc1)C(=O)N[C@@H](CC(C)C)C(=O)N[C@@H](CC(C)C)C(=O)N[C@@H](C)C(=O)N[C@@H](CCC(N)=O)C(=O)NCC(=O)N1CCC[C@H]1C(=O)N[C@@H](CO)C(=O)N[C@@H](CO)C(=O)NCC(=O)N[C@@H](C)C(=O)N1CCC[C@H]1C(=O)N1CCC[C@H]1C(=O)N1CCC[C@H]1C(=O)N[C@@H](CO)C(N)=O)C(C)C [Example 60] (H-Y[Aib]EGT[αMeF]ISDYSI[αMeL]LDKK([AEEA-AEEA-γGlu-C20 diacid])HQ[Aib]EFVE[4Pal]LLAQGPSSGAPPPS-NH2)
EC50 [1]: 0.0369 nM
EC50 [2]: > 5000 nM

CC[C@H](C)[C@H](NC(=O)[C@H](CO)NC(=O)[C@H](Cc1ccc(O)cc1)NC(=O)[C@H](CC(=O)O)NC(=O)[C@H](CO)NC(=O)[C@@H](NC(=O)[C@](C)(Cc1ccccc1)NC(=O)[C@@H](NC(=O)CNC(=O)[C@H](CCC(=O)O)NC(=O)C(C)(C)NC(=O)[C@@H](N)Cc1ccc(O)cc1)[C@@H](C)O)[C@@H](C)CC)C(=O)N[C@@](C)(CC(C)C)C(=O)N[C@@H](CC(C)C)C(=O)N[C@@H](CC(=O)O)C(=O)N[C@@H](CCCCN)C(=O)N[C@@H](CCCCNC(=O)COCCOCCNC(=O)COCCOCCNC(=O)CC[C@H](NC(=O)CCCCCCCCCCCCCCCCCCC(=O)O)C(=O)O)C(=O)N[C@@H](Cc1c[nH]cn1)C(=O)N[C@@H](CCC(N)=O)C(=O)NC(C)(C)C(=O)N[C@@H](CCC(=O)O)C(=O)N[C@@H](Cc1ccccc1)C(=O)N[C@H](C(=O)N[C@@H](CCC(=O)O)C(=O)N[C@@H](Cc1ccncc1)C(=O)N[C@@H](CC(C)C)C(=O)N[C@@H](CC(C)C)C(=O)N[C@@H](C)C(=O)N[C@H](C(=O)NCC(=O)N1CCC[C@H]1C(=O)N[C@@H](CO)C(=O)N[C@@H](CO)C(=O)NCC(=O)N[C@@H](C)C(=O)N1CCC[C@H]1C(=O)N1CCC[C@H]1C(=O)N1CCC[C@H]1C(=O)N[C@@H](CO)C(N)=O)[C@@H](C)O)C(C)C [Example 61] (H-Y[Aib]EGT[αMeF]ISDYSI[αMeL]LDKK([AEEA-AEEA-γGlu-C20 diacid])HQ[Aib]EFVE[4Pal]LLATGPSSGAPPPS-NH2)
EC50 [1]: 0.0167 nM
EC50 [2]: > 5000 nM

CC[C@H](C)[C@H](NC(=O)[C@H](CO)NC(=O)[C@H](Cc1ccc(O)cc1)NC(=O)[C@H](CC(=O)O)NC(=O)[C@H](CO)NC(=O)[C@@H](NC(=O)[C@](C)(Cc1ccccc1)NC(=O)[C@@H](NC(=O)CNC(=O)[C@H](CCC(=O)O)NC(=O)C(C)(C)NC(=O)[C@@H](N)Cc1ccc(O)cc1)[C@@H](C)O)[C@@H](C)CC)C(=O)N[C@@](C)(CC(C)C)C(=O)N[C@@H](CC(C)C)C(=O)N[C@@H](CC(=O)O)C(=O)N[C@@H](CCCCN)C(=O)N[C@@H](CCCCNC(=O)COCCOCCNC(=O)COCCOCCNC(=O)CC[C@H](NC(=O)CCCCCCCCCCCCCCCCCCC(=O)O)C(=O)O)C(=O)N[C@@H](Cc1c[nH]cn1)C(=O)N[C@@H](CCC(N)=O)C(=O)NC(C)(C)C(=O)N[C@@H](CCC(=O)O)C(=O)N[C@@H](Cc1ccccc1)C(=O)N[C@H](C(=O)N[C@@H](CCC(=O)O)C(=O)N[C@@H](Cc1ccncc1)C(=O)N[C@@H](CC(C)C)C(=O)N[C@@H](CC(C)C)C(=O)N[C@@H](C)C(=O)N[C@@H](C)C(=O)NCC(=O)N1CCC[C@H]1C(=O)N[C@@H](CO)C(=O)N[C@@H](CO)C(=O)NCC(=O)N[C@@H](C)C(=O)N1CCC[C@H]1C(=O)N1CCC[C@H]1C(=O)N1CCC[C@H]1C(=O)N[C@@H](CO)C(N)=O)C(C)C [Example 62] (H-Y[Aib]EGT[αMeF]ISDYSI[αMeL]LDKK([AEEA-AEEA-γGlu-C20 diacid])HQ[Aib]EFVE[4Pal]LLAAGPSSGAPPPS-NH2)
EC50 [1]: 0.0116 nM
EC50 [2]: > 5000 nM

CC[C@H](C)[C@H](NC(=O)[C@H](Cc1ccccc1)NC(=O)[C@@H](NC(=O)CNC(=O)[C@H](CCC(=O)O)NC(=O)C(C)(C)NC(=O)[C@@H](N)Cc1ccc(O)cc1)[C@@H](C)O)C(=O)N[C@@H](CO)C(=O)N[C@@H](CC(=O)O)C(=O)N[C@@H](Cc1ccc(O)cc1)C(=O)N[C@@H](CO)C(=O)N[C@H](C(=O)N[C@@](C)(CC(C)C)C(=O)N[C@@H](CC(C)C)C(=O)N[C@@H](CC(=O)O)C(=O)N[C@@H](CCCCN)C(=O)N[C@@H](CCCCNC(=O)COCCOCCNC(=O)COCCOCCNC(=O)CC[C@H](NC(=O)CCCCCCCCCCCCCCCCCCC(=O)O)C(=O)O)C(=O)N[C@@H](Cc1c[nH]cn1)C(=O)N[C@@H](CCC(N)=O)C(=O)NC(C)(C)C(=O)N[C@@H](CCC(=O)O)C(=O)N[C@@H](Cc1ccccc1)C(=O)N[C@H](C(=O)N[C@@H](CCC(=O)O)C(=O)N[C@@H](Cc1ccc(O)cc1)C(=O)N[C@@H](CC(C)C)C(=O)N[C@@H](CC(C)C)C(=O)N[C@@H](CCC(=O)O)C(=O)N[C@@H](CCC(N)=O)C(=O)NCC(=O)N1CCC[C@H]1C(=O)N[C@@H](CO)C(=O)N[C@@H](CO)C(=O)NCC(=O)N[C@@H](C)C(=O)N1CCC[C@H]1C(=O)N1CCC[C@H]1C(=O)N1CCC[C@H]1C(=O)N[C@@H](CO)C(N)=O)C(C)C)[C@@H](C)CC [Example 63] (H-Y[Aib]EGTFISDYSI[αMeL]LDKK([AEEA-AEEA-γGlu-C20 diacid])HQ[Aib]EFVEYLLEQGPSSGAPPPS-NH2)
EC50 [1]: 0.0398 nM
EC50 [2]: 1170 nM

— patent US12723063B2, “GIPR-agonist compounds” (Eli Lilly and Company, priority 2019, dated 2026)
